In patent US20020055528A1, “Artemisinin analogs having antimalarial, antiproliferative, and antitumor activities and chemoselective methods of making the same” (priority 1999, published 2002):
Like-named read-outs stand apart in the source and are kept apart here.

Columns and labels:
OVCAR-4 = assay: NCI 60 cell line screen (SRB), Ovarian Cancer; assay type: cell-based
NCI/ADR-RES = assay: NCI 60 cell line screen (SRB), Breast Cancer; assay type: cell-based
A498 = assay: NCI 60 cell line screen (SRB), Renal Cancer; assay type: cell-based
MOLT-4 = tested on: MOLT-4
Protocol: The screening assay is performed on 96-well microtitre plates. Relatively high initial inoculation densities are used, in order to permit measurement of “time-zero” values and to enhance the screen's ability to detect and provide some differentiation between antiproliferative and cytotoxic response parameters. […] The inoculated microtitre plates are pre-incubated for 24 hours at 37θC prior to drug additions. The five drug dilutions tested routinely range from 10^−4 to 10^−8 molar. Higher or lower concentration ranges may be selected on a nonroutine basis if appropriate solubility and/or prior biological information or other screening data so dictate. Duplicate wells are prepared for all concentrations, (concentration is often denoted by placing brackets around a number); “time-zero” and “no drug” controls are also provided for each test. The minimum amount of compound required for a one-time evaluation in the routine screen can be calculated from the knowledge that each test requires a total of approximately 40 ml (0.04 liter) of cell culture medium containing the highest desired drug concentration. Thus, the amount (grams) of sample required (assuming an upper test concentration limit of 10^−4 M) is: molecular weight of compound×[…]. After a 48 hour incubation (37θC) with the test compound, the cells are fixed in situ to the bottoms of the microtitre wells by addition of 50 ul of either 50% trichloroacetic acid (for adherent cell lines) or 80% trichloroacetic acid (for settled cell suspension lines), followed by incubation for 60 minutes at 4θC. The cellular protein in each well is assayed using a sulforhodamine B (SRB) stain procedure. Briefly, after discarding the supernatants, the microtitre plates are washed 5 times with deionized water and air-dried. One hundred microliters of SRB solution (0.4% w/v in 1% acetic acid) is added to each microtitre well and incubated for 10 minutes at room temperature. Unbound SRB is removed by washing 5 times with 1 % acetic acid. The plates are air-dried, the bound stain is solubilized with Tris buffer, and the optical densities read at 515 nm. SRB is a bright pink anionic dye which, in dilute acetic acid, binds electrostatically to the basic amino acids of TCA-fixed cells. Cryopreserved master stocks of all the lines are maintained, and cultures used for screening are replaced from the master stock after no more than twenty passages in the screening laboratory. The cell line panel consists of 60 lines, organized into nine, disease-related subpanels including leukemia, non-small-cell lung cancer, colon, CNS, melanoma, ovarian, renal, prostate and breast cancers.
The response parameters G150 and LC50 are interpolated values representing the concentrations at which the percentage growth (PG) is +50 and −50, respectively:
GI50 is the concentration for which the PG=+50. At this value the increase from time tzero, in the number or mass of cells in the test well is only 50% as much as the corresponding increase in the control well during this period of the experiment, see Table II. A drug effect of this intensity is interpreted as primary growth inhibition.
TGI is the concentration for which PG=0. At this value the number or mass of cells in the well at the end of the experiment equals the number or mass of cells in the well at time tzero, see Table III. A drug effect of this intensity is regarded as cytostasis.
LC50 is the concentration for which the PG=−50. At this value, the number or mass of cells in the test well at the end of the experiment is half that at time tzero, see Table IV. This is interpreted as cytotoxicity.

RXF 393 = assay: NCI 60 cell line screen (SRB), Renal Cancer; assay type: cell-based
NCI-H23 = assay: NCI 60 cell line screen (SRB), Non-Small Cell Lung Cancer; assay type: cell-based
BT-549 = assay: NCI 60 cell line screen (SRB), Breast Cancer; assay type: cell-based
[1] = tested on: MB231/ATCC (second line of the wrapped label, with values of its own); assay: NCI 60 cell line screen (SRB), Breast Cancer; assay type: cell-based
MDA-MB-435 = assay: NCI 60 cell line screen (SRB), Breast Cancer; assay type: cell-based
CAKI-1 = assay: NCI 60 cell line screen (SRB), Renal Cancer; assay type: cell-based
U251 = assay: NCI 60 cell line screen (SRB), CNS Cancer; assay type: cell-based
DU-145 = assay: NCI 60 cell line screen (SRB), Prostate Cancer; assay type: cell-based
SNB-19 = assay: NCI 60 cell line screen (SRB), CNS Cancer; assay type: cell-based
HCT-15 = assay: NCI 60 cell line screen (SRB), Colon Cancer; assay type: cell-based
MDA-N = assay: NCI 60 cell line screen (SRB), Breast Cancer; assay type: cell-based
786-0 = assay: NCI 60 cell line screen (SRB), Renal Cancer; assay type: cell-based
RPMI-8226 = assay: NCI 60 cell line screen (SRB), Leukemia; assay type: cell-based
OVCAR-3 = assay: NCI 60 cell line screen (SRB), Ovarian Cancer; assay type: cell-based; details: PG=0
KM12 = assay: NCI 60 cell line screen (SRB), Colon Cancer; assay type: cell-based
MCF7 = assay: NCI 60 cell line screen (SRB), Breast Cancer; assay type: cell-based

Which Log10GI50 (OVCAR-4; OVCAR-4, PG=+50) does the source give for `CC1=C(C=Cc2cccc(C=CC3=C(C)C4CCC(C)C5CCC6(C)OOC45C(O3)O6)c2)OC2OC3(C)CCC4C(C)CCC1C24OO3` (centres unmarked) [VII-g] here?
The Log10GI50 was −6.96 log10M.

And the Log10GI50 (OVCAR-4; Table IV (LC50, PG=−50), OVCAR−4)?
The Log10GI50 was >−4.00 log10M.

And the Log10TGI (NCI/ADR-RES; PG=0)?
Its Log10TGI is >−4.00 log10M.

What about the Log10GI50 (NCI/ADR-RES; PG=+50) of the same molecule?
The Log10GI50 was −5.27 log10M.

What about the Log10GI50 (NCI/ADR-RES; Table IV (LC50, PG=−50)) of the same molecule?
Its Log10GI50 is >−4.00 log10M.

What about the Log10TGI (A498; PG=0) of the same molecule?
Its Log10TGI is −4.05 log10M.

What about the Log10GI50 (A498; PG=+50) of the same molecule?
The Log10GI50 was −6.04 log10M.

What about the Log10GI50 (A498; Table IV (LC50, PG=−50)) of the same molecule?
The Log10GI50 was >−4.00 log10M.

And the “drug concentration for cytotoxicity (percentage growth −50)” value (MOLT-4)?
Its value is “greater than 10^−4 M”.

What about the “drug concentration for primary growth inhibition (percentage growth +50)” value (MOLT-4; MOLT-4, FIGS. 6a-6e) of the same molecule?
The value was > 10^−7 molar.

And the Log10GI50 (MOLT-4; MOLT-4, PG=+50)?
Its Log10GI50 is −7.30 log10M.

And the Log10TGI (MOLT-4; MOLT−4, PG=0)?
The Log10TGI was −7.30 log10M.

What about the Log10GI50 (MOLT-4; Table IV (LC50, PG=−50), MOLT−4) of the same molecule?
Its Log10GI50 is >−4.00 log10M.

What about the Log10TGI (RXF 393; PG=0) of the same molecule?
The Log10TGI was >−4.00 log10M.

What about the Log10GI50 (RXF 393; PG=+50) of the same molecule?
The Log10GI50 was −5.80 log10M.

And the Log10GI50 (RXF 393; Table IV (LC50, PG=−50))?
The Log10GI50 was >−4.00 log10M.

And the Log10TGI (NCI-H23; PG=0)?
The Log10TGI was −4.06 log10M.

What about the “log10 GI50 or LC50 (see conditions)” value (NCI-H23; PG=+50) of the same molecule?
Its value is −5.92 log10M.

And the “log10 GI50 or LC50 (see conditions)” value (NCI-H23; Table IV (LC50, PG=−50))?
Its value is >−4.00 log10M.

And the Log10GI50 (BT-549; PG=+50)?
The Log10GI50 was −7.51 log10M.

And the Log10GI50 (BT-549; Table IV (LC50, PG=−50))?
The Log10GI50 was >−4.00 log10M.

And the Log10GI50 ([1]; PG=+50)?
Its Log10GI50 is −7.10 log10M.

And the Log10GI50 ([1]; Table IV (LC50, PG=−50))?
The Log10GI50 was >−4.00 log10M.

And the Log10TGI (MDA-MB-435; MDA-MB-435, PG=0)?
Its Log10TGI is >−4.00 log10M.

And the Log10GI50 (MDA-MB-435; MDA-MB−435, PG=+50)?
Its Log10GI50 is −6.57 log10M.

What about the Log10GI50 (MDA-MB-435; Table IV (LC50, PG=−50), MDA-MB-435) of the same molecule?
The Log10GI50 was >−4.00 log10M.

And the Log10GI50 (CAKI-1; PG=+50)?
The Log10GI50 was −6.22 log10M.

What about the Log10GI50 (CAKI-1; Table IV (LC50, PG=−50)) of the same molecule?
The Log10GI50 was >−4.00 log10M.

And the Log10TGI (U251; PG=0)?
Its Log10TGI is >−4.00 log10M.

What about the Log10GI50 (U251; PG=+50) of the same molecule?
The Log10GI50 was −6.86 log10M.

And the Log10GI50 (U251; Table IV (LC50, PG=−50))?
Its Log10GI50 is >−4.00 log10M.

And the Log10TGI (DU-145; PG=0)?
Its Log10TGI is >−4.00 log10M.

What about the Log10GI50 (DU-145; PG=+50) of the same molecule?
Its Log10GI50 is −5.71 log10M.

And the Log10GI50 (DU-145; Table IV (LC50, PG=−50))?
Its Log10GI50 is >−4.00 log10M.

What about the Log10TGI (SNB-19; PG=0) of the same molecule?
Its Log10TGI is >−4.00 log10M.

And the “Log10GI50 or Log10LC50 (see condition)” value (SNB-19; PG=+50)?
The value was −6.48 log10M.

And the “Log10GI50 or Log10LC50 (see condition)” value (SNB-19; Table IV (LC50, PG=−50))?
Its value is >−4.00 log10M.

What about the Log10TGI (HCT-15; PG=0) of the same molecule?
The Log10TGI was −4.88 log10M.

What about the “log10 GI50 (PG=+50) or LC50 (PG=−50), per row condition” value (HCT-15; PG=+50) of the same molecule?
The value was −7.05 log10M.

What about the “log10 GI50 (PG=+50) or LC50 (PG=−50), per row condition” value (HCT-15; Table IV (LC50, PG=−50)) of the same molecule?
The value was >−4.00 log10M.

And the Log10TGI (MDA-N; PG=0)?
The Log10TGI was −4.83 log10M.

And the Log10GI50 (MDA-N; PG=+50)?
Its Log10GI50 is −6.82 log10M.

What about the Log10GI50 (MDA-N; Table IV (LC50, PG=−50)) of the same molecule?
The Log10GI50 was >−4.00 log10M.

And the Log10TGI (786-0; PG=0)?
Its Log10TGI is >−4.00 log10M.

What about the Log10GI50 (786-0; PG=+50) of the same molecule?
Its Log10GI50 is −6.10 log10M.

And the Log10GI50 (786-0; Table IV (LC50, PG=−50))?
The Log10GI50 was >−4.00 log10M.

What about the Log10TGI (RPMI-8226; PG=0) of the same molecule?
Its Log10TGI is −7.25 log10M.

And the Log10GI50 (RPMI-8226; PG=+50)?
The Log10GI50 was −7.25 log10M.

What about the Log10GI50 (RPMI-8226; Table IV (LC50, PG=−50)) of the same molecule?
The Log10GI50 was >−4.00 log10M.

And the Log10TGI (OVCAR-3)?
Its Log10TGI is >−4.00 log10M.

What about the Log10TGI (KM12; PG=0) of the same molecule?
Its Log10TGI is >−4.00 log10M.

What about the Log10GI50 (KM12; PG=+50) of the same molecule?
Its Log10GI50 is −7.27 log10M.

And the Log10GI50 (KM12; Table IV (LC50, PG=−50))?
Its Log10GI50 is >−4.00 log10M.

And the Log10TGI (MCF7; PG=0)?
Its Log10TGI is >−4.00 log10M.

What about the Log10GI50 (MCF7; PG=+50) of the same molecule?
Its Log10GI50 is −6.63 log10M.

What about the Log10GI50 (MCF7; Table IV (LC50, PG=−50)) of the same molecule?
Its Log10GI50 is >−4.00 log10M.
